Experimental data published in patent US12053506B2, “Romo1-derived antimicrobial peptides and variants thereof” (priority 2019, dated 2024).
≈ marks a conversion by molar mass, not a printed value. Read-outs that look alike come from different tables or passages of the source. Non-standard residues stand in square brackets, D forms with d. Residues, ends and D or L forms follow the SMILES beside them. No end group written: not given here.

Key:
[1] = system: Pseudomonas aeruginosa (ATCC 27853); assay type: cell-based; conditions: for MBC Pseudomonas aeruginosa: Tables 11-15, no unit printed
How it was run: (§1)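 Bacteria grown in 3% TSB at 37° C, diluted in 10 mM sodium phosphate/1% TSB to 1×10^5 CFU/ml in wells, exposed to peptides (0–300 μg/ml) for 1 h at 37° C. Mixtures plated on TS agar for 18 h at 37° C; MBC is the lowest concentration giving no colonies.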

[2] = system: Staphylococcus aureus (ATCC 29213); assay type: cell-based; conditions: for MBC Staphylococcus aureus: Tables 11-15, no unit printed
How it was run: as §1

[3] = system: mouse red blood cells; assay type: cell-based
Description: Red blood cells were diluted with PBS, centrifuged 3 times at 900 g for 10 minutes, and washed. 100 μl of the diluted red blood cell solution (10% v/v PBS) was dispensed into each well of a 96-well microplate, and KU-5878, KU-5878-K4, KU-5878-K4-D, melittin, magainin 2 or daptomycin was added to each well which was then filled with PBS to 200 μl, followed by reaction by incubation at 37° C. for 1 hour. Then, the supernatant of the reaction solution was separated, and the absorbance at a wavelength of 550 nm was measured using a spectrophotometer. As control, PBS and 0.1% Triton X-100 (Triton X-100) solution were used.
Based on the results of measurement of the absorbance, the degree of red blood cell destruction was calculated according to Equation 1 below, and the results of the calculation are shown in FIG. 6. The % intact RBC=100(%)−[(absorbance of peptide-treated red blood cell solution−absorbance of PBS-treated red blood cell solution)/(absorbance of Triton X-100-treated red blood cell solution−absorbance of PBS-treated red blood cell solution)×100(%)] [Equation 1]

[4] = system: Pseudomonas aeruginosa and Staphylococcus aureus; assay: MBC assay, antibacterial activity of Romo1-derived peptides compared in words; assay type: cell-based; conditions: Table 1 peptides
From the text: Romo1 protein comprises two α-helices. The present inventors synthesized the α-helix 2 region having both hydrophilicity and hydrophobicity, and evaluated the antibacterial activity thereof using minimum bactericidal concentration (MBC) assay. The α-helix 2 region was named KU-5279 (the 52-79 amino acid region of Romo1 protein). Then, in order to identify peptides that are beneficial for human application and have excellent antibacterial activity, the present inventors synthesized several peptides comprising a sequence of contiguous amino acids starting at any amino acid selected from the 52-79 amino acid region of Romo1 protein, and comparatively evaluated the antibacterial activities of the peptides by minimum bactericidal concentration assay (See Table 1 below for information on each peptide). Evaluation of the antibacterial activity of each peptide by minimum bactericidal concentration assay was specifically performed as follows. First, each of Pseudomonas aeruginosa (ATCC 27853) and Staphylococcus aureus (ATCC 29213) was cultured in 3% (w/v) TSB (Tryptic Soy Broth) liquid medium at 37° C. and 200 rpm for 4 hours, and then further cultured under the same conditions for 3 hours to a concentration of 5×10^6 CFU/ml. […]

[5] = system: Streptococcus pneumoniae (NCCP 14585); assay type: cell-based; conditions: NCCP 14585, 4 h
Description: (§2) The minimum bactericidal concentration assay was the same as the method used in Example 1.
(§3) Specifically, each type of bacteria was cultured in 3% (w/v) TSB (Tryptic Soy Broth) liquid medium at 37° C. and 200 rpm for 4 hours, and then further cultured under the same conditions for 3 hours to a concentration of 5×10^6 CFU/ml. Strain solutions were prepared by diluting each of the […] of 2×10^5 CFU/ml.
(§4) Then, the KU-5878 peptide at varying concentrations (0 μg/ml to 300 μg/ml) was dispensed into each well of a 96-well microplate, and 100 μl (1×10^5 CFU/ml) of each of the prepared strain solutions was added thereto, mixed therewith, and allowed to react with the peptide in an incubator at 37° C. for 1 hour.
(§5) In addition, 10 μl of each reaction solution of the peptide and the strain was plated on the TS agar plate at a constant size, and incubated in an incubator at 37° C. for 18 hours, and then colony formation on the plate was checked. The minimum bactericidal concentration was defined as the minimum concentration of the peptide at which no colony was formed, and the experimental results are shown in Table 2 below.

[6] = system: Multidrug-resistant A. baumannii; conditions: multidrug-resistant, 4 h
Description: as §2, §3, §4
(§6) In addition, 10 μl of each reaction solution of the peptide and the strain was plated on the TS agar plate at a constant size, and incubated in an incubator at 37° C. for 18 hours, and then colony formation on the plate was checked.
(§7) Meanwhile, the multidrug-resistant Pseudomonas aeruginosa, multidrug-resistant Acinetobacter and multidrug-resistant Klebsiella in Table 2 below were bacteria isolated from patients at Korea University Anam Hospital. […] Then, these bacteria were used in the experiment.

[7] = system: Multidrug-resistant K. pneumoniae; conditions: multidrug-resistant, 4 h
Description: as §2, §3, §4, §6, §7

[8] = system: Vancomycin-resistant E. faecium (NCCP 11522); assay type: cell-based, Enterococcus faecium; conditions: Vancomycin-resistant (NCCP 11522, 4 h)
Description: as §2, §3, §4, §5

[9] = system: Enterococcus faecalis (ATCC 19433); assay: Minimum bactericidal concentration (MBC) assay; assay type: cell-based
Description: as §2, §3, §4, §5

[10] = system: Enterobacter aerogenes (ATCC 13048); assay: Minimum bactericidal concentration (MBC) assay; assay type: cell-based
Description: as §2, §3, §4, §5

[11] = system: Streptomyces sindenensis (ATCC 12392); assay: Minimum bactericidal concentration (MBC) assay; assay type: cell-based
Description: as §2, §3, §4, §5

[12] = system: Acinetobacter baumannii (ATCC 19606); assay: Minimum bactericidal concentration (MBC) assay; assay type: cell-based
Description: as §2, §3, §4, §5

[13] = system: Bacillus subtilis (ATCC 6633); assay: Minimum bactericidal concentration (MBC) assay; assay type: cell-based
Description: as §2, §3, §4, §5

[14] = system: Klebsiella pneumoniae (ATCC 13883); assay: Minimum bactericidal concentration (MBC) assay; assay type: cell-based
Description: as §2, §3, §4, §5

[15] = system: Escherichia coli (ATCC 25922); assay: Minimum bactericidal concentration (MBC) assay; assay type: cell-based
Description: as §2, §3, §4, §5

[16] = system: Enterococcus faecium (ATCC 19434); assay: Minimum bactericidal concentration (MBC) assay; assay type: cell-based
Description: as §2, §3, §4, §5

[17] = system: Vancomycin-resistant S. aureus (NCCP 15872); assay type: cell-based, Staphylococcus aureus; conditions: Vancomycin-resistant (NCCP 15872, 4 h)
Description: as §2, §3, §4, §5

[18] = system: multidrug-resistant Pseudomonas aeruginosa; conditions: 4 h
Description: First, each of Pseudomonas aeruginosa (ATCC 27853) and Staphylococcus aureus (ATCC 29213) was cultured in 3% (w/v) TSB (Tryptic Soy Broth) liquid medium at 37° C. and 200 rpm for 4 hours, and then further cultured under the same conditions for 3 hours to a concentration of 5×10^6 CFU/ml. Strain solutions were prepared by diluting each of the further cultured strains with SP (sodium phosphate; 10 mM sodium phosphate, 1% TSB) buffer to a final concentration of 2×10^5 CFU/ml.
as §4, with “each” for “the KU-5878”
In addition, 30 g/L of TS (tryptic soy) and 15 g/L of agar were dissolved in distilled water and sterilized, and then 25 ml of the solution was poured onto a 100 mm round plate and solidified at room temperature for one day or more, thereby preparing a TS agar plate. 10 μl of each reaction solution of the peptide and the strain was plated on the TS agar plate at a constant size, and incubated in an incubator at 37° C. for 18 hours, and then colony formation on the plate was checked.
as §3, §4, §6, §7

[19] = system: methicillin-resistant Staphylococcus aureus (ATCC 33591); conditions: for MBC value (μg/ml) against methicillin-resistant Staphylococcus aureus: ATCC 33591, 4 h; for MBC MRSA: Tables 11-15, no unit printed
[20] = system: CRPA; assay: MBC, evaluation of antibacterial activities of KU-5878 variants; assay type: cell-based; conditions: Tables 11-15, no unit printed

CC[C@H](C)[C@H](NC(=O)CNC(=O)[C@H](CCSC)NC(=O)CNC(=O)[C@@H](NC(=O)[C@H](C)NC(=O)[C@H](CCSC)NC(=O)[C@H](Cc1ccccc1)NC(=O)[C@@H](NC(=O)CNC(=O)[C@H](Cc1ccccc1)NC(=O)[C@@H](CCCCN)NC(=O)CNC(=O)CNC(=O)[C@@H](CCCCN)NC(=O)[C@@H](CCCCN)NC(=O)[C@H](CCSC)NC(=O)[C@H](CCSC)NC(=O)[C@@H](CCCCN)NC(=O)[C@@H](N)CCCCN)[C@@H](C)O)[C@@H](C)CC)C(=O)N[C@@H](CCCNC(=N)N)C(=O)O [KU-5878-K4-D] (H-K[dK]MM[dK][dK]GG[dK]FGTFMAIGMGIR-OH)
MBC (μg/ml) value against Pseudomonas aeruginosa ([1]; ATCC 27853, 1 h): 3 µg/mL (≈ 1.29 µM)
MBC (μg/ml) value against Staphylococcus aureus ([2]; ATCC 29213, 1 h): 3 µg/mL (≈ 1.29 µM)
hemolysis of red blood cells [3]: little hemolysis of red blood cells

CLRIGMRGRELM [pCM12, reference compound]
antibacterial activity by MBC assay, in words [4]: low bactericidal activity
MBC value (μg/ml) against Pseudomonas aeruginosa ([1]; ATCC 27853, 1 h): >300 µg/mL
MBC value (μg/ml) against Staphylococcus aureus ([2]; ATCC 29213, 1 h): >300 µg/mL

KKMMKKGGKFGTFMAIGMGIR [KU-5878-K4]
MBC value (μg/ml), Streptococcus pneumoniae [5]: 4 µg/mL
MBC value (μg/ml), Multidrug-resistant A. baumannii [6]: 4 µg/mL
MBC value (μg/ml), Multidrug-resistant K. pneumoniae [7]: 5 µg/mL
MBC value (μg/ml), Vancomycin-resistant E. faecium [8]: 5 µg/mL
MBC value (μg/ml), Enterococcus faecalis [9]: 5 µg/mL
MBC value (μg/ml), Enterobacter aerogenes [10]: 5 µg/mL
MBC value (μg/ml), Streptomyces sindenensis [11]: 5 µg/mL
MBC value (μg/ml), Acinetobacter baumannii [12]: 4 µg/mL
MBC value (μg/ml), Bacillus subtilis [13]: 5 µg/mL
MBC value (μg/ml), Klebsiella pneumoniae [14]: 5 µg/mL
MBC value (μg/ml), Escherichia coli [15]: 5 µg/mL
MBC value (μg/ml), Enterococcus faecium [16]: 5 µg/mL
MBC value (μg/ml), Vancomycin-resistant S. aureus [17]: 6 µg/mL
MBC (μg/ml) value against Pseudomonas aeruginosa ([1]; ATCC 27853): 4 µg/mL
MBC value (μg/ml) against Pseudomonas aeruginosa ([1]; ATCC 27853, 1 h): 4 µg/mL
MBC (μg/ml) value against Staphylococcus aureus ([2]; ATCC 29213): 3 µg/mL
MBC value (μg/ml) against Staphylococcus aureus ([2]; ATCC 29213, 1 h): 3 µg/mL
MBC value (μg/ml) against multidrug-resistant Pseudomonas aeruginosa [18]: 5 µg/mL
hemolysis of red blood cells [3]: little hemolysis of red blood cells
MBC value (μg/ml) against methicillin-resistant Staphylococcus aureus [19]: 5 µg/mL

KTMMQSGGTFGTFMAIGMGIA [KU-5878-R78A]
MBC CRPA [20]: > 300 µg/mL
MBC value (μg/ml) against Pseudomonas aeruginosa ([1]; ATCC 27853, 1 h): >300 µg/mL
MBC Pseudomonas aeruginosa [1]: > 300 µg/mL
MBC value (μg/ml) against Staphylococcus aureus ([2]; ATCC 29213, 1 h): >300 µg/mL
MBC Staphylococcus aureus [2]: > 300 µg/mL
MBC value (μg/ml) against multidrug-resistant Pseudomonas aeruginosa [18]: >300 µg/mL
MBC value (μg/ml) against methicillin-resistant Staphylococcus aureus [19]: >300 µg/mL
MBC MRSA [19]: > 300 µg/mL

KTMMQSGGTFGTFMAIGMGIK [KU-5878-R78K]
MBC CRPA [20]: > 300 µg/mL
MBC value (μg/ml) against Pseudomonas aeruginosa ([1]; ATCC 27853, 1 h): >300 µg/mL
MBC Pseudomonas aeruginosa [1]: > 300 µg/mL
MBC value (μg/ml) against Staphylococcus aureus ([2]; ATCC 29213, 1 h): >300 µg/mL
MBC Staphylococcus aureus [2]: > 300 µg/mL
MBC value (μg/ml) against multidrug-resistant Pseudomonas aeruginosa [18]: >300 µg/mL
MBC value (μg/ml) against methicillin-resistant Staphylococcus aureus [19]: >300 µg/mL
MBC MRSA [19]: > 300 µg/mL

RTMMQSGGTFGTFMAIGMGIR [KU-5878-K58R]
MBC CRPA [20]: 120 µg/mL
MBC value (μg/ml) against Pseudomonas aeruginosa ([1]; ATCC 27853, 1 h): 120 µg/mL
MBC Pseudomonas aeruginosa [1]: 120 µg/mL
MBC value (μg/ml) against Staphylococcus aureus ([2]; ATCC 29213, 1 h): 120 µg/mL
MBC Staphylococcus aureus [2]: 120 µg/mL
MBC value (μg/ml) against multidrug-resistant Pseudomonas aeruginosa [18]: 120 µg/mL
MBC value (μg/ml) against methicillin-resistant Staphylococcus aureus [19]: 130 µg/mL
MBC MRSA [19]: 120 µg/mL
